Read-outs that look alike come from different tables or passages of the source.
Columns and labels:
human sperm = assay: sperm immobilizing activity (SIA) by CASA; type: cell-based; settings: for EC50: read-out: EC50 [SIA]; for effective 100% inhibitory concentration (EC100), sperm motility: FIG. 1, CASA
Description: To evaluate the effect of each of the 31 thiourea compounds on human sperm motility and kinematics, highly motile fractions of sperm were prepared from donor semen (n=8) by discontinuous (90-45%) gradient centrifugation using Enhance Plus medium (Conception Technologies, San Diego, Calif.) and the “swim-up” method. The swim-up method was used after density gradient centrifugation, washing, and resuspension of sperm in BWW-3% BSA. Pooled swim-up fraction was washed once prior to spermicidal assay.
All donor semen specimens were obtained after informed consent and in compliance with the guidelines of the Parker Hughes Institute Institutional Review Board. […] The stock solutions of thioureas were prepared in DMSO (100 mM) and diluted in assay medium to yield the desired concentrations (up to 1000 μM). Corresponding volume of DMSO (either 0.5% or 1%) was added to control tubes. After 3 hours of incubation at 37° C., the percentage of motile sperm was evaluated by CASA [53, 62-64]. The percent motilities were compared with sham-treated control suspensions of motile sperm.
For CASA, 5-μl of each sperm suspension was loaded into a 20-μm Microcell slide (Conception Technologies) in a counting chamber at 37° C. At least 5-8 fields per slide were scanned for analysis using a Hamilton Thome Integrated Visual Optical System (IVOS), version 10 instrument (Hamilton Thome Research Inc., Danvers, Mass.). Each field was recorded for 30 seconds. The computer calibrations were set at 30 frames at a frame rate of 30/second.
The sperm kinematics parameters that were determined included numbers of motile (MOT) and progressively (PRG) motile sperm; curvilinear velocity (VCL; a measure of the total distance traveled by a given sperm during the acquisition divided by the time elapsed); average path velocity (VAP; the spatially averaged path that eliminates the wobble of the sperm head), straight line velocity (VSL; the straight-line distance from beginning to end of track divided by time taken), beat cross frequency (BCF; frequency of sperm head crossing sperm average path), the amplitude of lateral head displacement (ALH; the mean width of sperm head oscillation), and the derivatives, straightness (STR=VSL/VAP×100) and linearity (LIN=VSL/VCL×100; departure of sperm track from a straight line). Data from each individual cell track were recorded and analyzed. At least 200 motile sperm were analyzed for each aliquot sampled.

[1] = test system: normal human vaginal epithelial cells; assay: MTT cell viability assay, vaginal epithelial cells; type: cell-based; settings: read-out: IC50[MTT] vaginal epithelial cells
Description: (§1) Briefly, exponential growing vaginal, ectocervical, and endocervical epithelial cells were seeded into 96-well plates at a density of 2×10^4 cells/well and incubated for 24 h at 37° C. prior to drug exposure. On the day of treatment, culture medium was aspirated from the wells and replaced with fresh medium containing serial two-fold drug concentrations ranging from 7.8 μM to 1000 μM. N-9 (IGEPAL CO-630; Rhone Poulenc, Cranbury, N.J.) was diluted in PBS. Triplicate wells were used for each treatment. Culture plates were then incubated for 3 hours before adding 10 μl of MTT solution (5 mg/ml in PBS) to each well. Wells containing only medium and MTT were used as control for each plate. The tetrazolium/formazan reaction was allowed to proceed for 4 hours at 37° C., and then 100 μl of the solubilization buffer (10% sodium dodecyl sulfate in 0.1% HCl) was added to all wells and mixed thoroughly to dissolve the dark blue formazan crystals. After an overnight incubation at 37° C., the OD at 540 nm were measured using a 96-well multiscanner autoreader with the solubilization buffer serving as blank. To translate the OD540 values into the number of live cells in each well, the OD540 values were compared to those of standard OD540-versus-cell number curves generated for each cell line. The percent survival was calculated using the formula: % survival=Live cell number [test]/Live cell number [control]×100. The results were expressed as mean IC50 values for three independent experiments. The IC50 [MTT] was defined as the concentration required for 50% reduction in cell survival.
(§2) Cell viability was measured by the MTT assay.

[2] = test system: normal human ectocervical epithelial cells; assay: MTT cell viability assay, ectocervical epithelial cells; type: cell-based; settings: read-out: IC50[MTT] ectocervical epithelial cells
Description: as §1, §2

[3] = test system: normal human endocervical epithelial cells; assay: MTT cell viability assay, endocervical epithelial cells; type: cell-based; settings: read-out: IC50[MTT] endocervical epithelial cells
Description: as §1, §2

HIV-1 strain HTLVIIIB = assay: p24 antigen production in HIV-1 infected PBMCs; type: cell-based; settings: Human immunodeficiency virus 1, PBMC
Description: The HTLVIIIB strain of HIV-1 was propagated in CCRF-CEM cells and the virus stocks obtained from cell-free supernatants of infected cells were titered using MT-2 cells. Cell-free supernatants were harvested and frozen in 1 ml aliquots at −70° C.
Stock solutions (10 mM) of thiourea compounds were prepared in dimethylsulfoxide (DMSO). Cells were cultured for 7 days in 96-well microtiter plates (100 μl/well; 2×10^6 cells/ml, triplicate wells) in the presence and absence of various concentrations (0.001 μM to 100 μM) of the thioureas. Cells from non-infected controls were handled in the same way except the virus was omitted from the preparation. Aliquots of culture supernatants were removed from the wells on the 7th day after infection for p24 antigen as previously described. The p24 enzyme immunoassay was the unmodified kinetic assay available commercially (Coulter Corporation/Immunotech, Inc., Westbrook, Me.). The assay uses a murine monoclonal antibody (mAb) to the HIV core protein coated onto microwell strips to which the antigen present in the test culture supernatant sample binds. The plates were read on a ELISA reader (Molecular Devices, Sunnyvale, Calif.) at 650 nm and p24 levels, expressed as ng/ml, were calculated against known standards supplied by Coulter/Imrunotech, Inc. Percent viral inhibition was calculated by comparing the p24 values for the test substance-treated infected cells with the p24 values for untreated infected cells (i.e., virus controls). […]

[4] = target: T1, purified recombinant HIV-1 RT (Human immunodeficiency virus type 1 group M subtype B, UniProt P03366); assay: cell-free Quan-T-RT RT inhibition assay (scintillation proximity); type: biochemical; settings: IC50 [rRT], purified recombinant HIV-1 RT, cell-free
T1 construct: purified recombinant HIV-1 RT
Description: Each of the thirty one thiourea compounds was tested for RT inhibitory activity against purified recombinant HIV-1 RT using the cell-free Quan-T-RT system (Amersham Corp., Arlington Heights, Ill.), which utilizes the scintillation proximity assay principle.

[5] = partition coefficient n-octanol/water (Pa); type: physicochemical; settings: UV absorption
Description: Partition of the test compounds between n-octanol and water as a measure of their lipophilicity was determined by taking the UV absorption of each compound in n-octanol, water-saturated n- octanol (1:1), and n-octanol-saturated water (1:1). The UV absorption maxima were determined by selecting a wavelength with the maximum absorption peak in the water-saturated octanol layer and the corresponding peak in the octanol-saturated water. Three absorption spectra were obtained for each compound. The partion coefficient (Pa) was calculated as the ratio of the compound concentration present in the lipid phase to the compound concentration present in the aqueous phase.

[6] = HIV-1 HTLVIIIB infected human PBMC, p24 antigen on 7th day, read-out: IC50 [p24]
[7] = motile human sperm, 3 hours at 37° C., CASA
[8] = HIV-1 HTLVIIIB infected human PBMC, values in nM, read-out: IC50[p24]

| SMILES | EC50 (human sperm; Homo sapiens, Sperm, 3 h) | IC50 ([1]; 3 h) | IC50 ([2]; 3 h) | IC50 ([3]; 3 h) | IC50 (HIV-1 strain HTLVIIIB; [6]) | IC50 [4] | EC50 (human sperm; [7]) | Pa, Partition coefficient [5] | IC50 ([1]; 3 h exposure, MTT) | IC50 ([2]; 3 h exposure, MTT) | IC50 ([3]; 3 h exposure, MTT) | IC50 (HIV-1 strain HTLVIIIB; [8]) | IC50 (HIV-1 strain HTLVIIIB; read-out: IC50 [p24]) | IC50 (HIV-1 strain HTLVIIIB; read-out: IC50[p24]) | effective 100% inhibitory concentration (EC100), sperm motility (human sperm) |
| --- | --- | --- | --- | --- | --- | --- | --- | --- | --- | --- | --- | --- | --- | --- | --- |
| CCCCCCCCCc1ccc(OCCOCCOCCOCCOCCOCCOCCOCCOCCO)cc1 [Compound N-9, nonoxynol-9, reference compound] | 81 µM | 64 µM | 58 µM | 32 µM | – | – | – | – | – | – | – | – | – | – | – |
| S=C(NCCc1ccccn1)Nc1ccccn1 [HI 207] | – | – | – | – | 270 nM | 0.39 µM | 279 µM | 2.32 | > 1000 µM | > 1000 µM | > 1000 µM | – | – | – | – |
| Fc1ccccc1CCNC(=S)Nc1ccc(Br)cn1 [HI 240] | – | – | – | – | < 1 nM | 0.6 µM | 147 µM | 1.20 | > 1000 µM | > 1000 µM | > 1000 µM | < 1 nM | – | – | – |
| S=C(NCCc1ccccc1Cl)Nc1ccc(Br)cn1 [HI 253] | – | – | – | – | < 1 nM | 0.7 µM | 70 µM | 1.04 | > 1000 µM | > 1000 µM | > 1000 µM | < 1 nM | – | – | – |
| S=C(NCCC1=CCCCC1)Nc1ccc(Br)cn1 [HI 346] | – | – | – | – | – | 0.6 µM | 42 µM | 8.6 | > 1000 µM | 765 ± 400 µM | 580 ± 48 µM | – | 3 nM | 3 nM | 0.25 mM |
| S=C(NCCC1=CCCCC1)Nc1ccc(Cl)cn1 [HI 445] | – | – | – | – | – | – | 57 µM | 6.3 | 578 ± 25 µM | 692 ± 139 µM | 185 ± 21 µM | – | 3 nM | 3 nM | 1 mM |

— US6774139B1, “Dual function microbicides” (Parker Hughes Institute, priority 2000, dated 2004)
